Values quoted from earlier work, collected in patent US10919926B2, “Compound or salt thereof, natural killer T cell activator, and pharmaceutical composition” (KEIO UNIVERSITY, priority 2016, dated 2021).

System: RBL-CD1d cells and NKT hybridoma 2E10 cells
Conditions: previously known

CCCCCCCCCCCCCCCCCCCCCCCCCC(=O)N[C@@H](CO[C@H]1O[C@H](CO)[C@H](O)[C@H](O)[C@H]1O)[C@H](O)[C@H](O)CCCCCCCCCCCCCC [α-GalCer, α-galactosylceramide]
cytokine-inducing capacity compared with β-GalCer and C19: higher than β-GalCer and C19
